In patent US11534457B2, “Use of dextran sulfate” (priority 2017, dated 2022):

Experiments:
[1] = system: trabecular meshwork (TM) scarring in glaucomatous eyes; assay: TGF-β induced glaucoma in rats, trabecular meshwork scarring (laminin, fibronectin immunohistochemistry); format: in vivo, Sprague Dawley rats
Description: Glaucoma was induced in adult male Sprague Dawley rats by repeat twice weekly intracameral (IC) injections of transforming growth factor-β (TGF-β) to increase intraocular pressure (IOP). Sustained increases in IOP (after two weeks) leads to death of retinal ganglion cells (30-40%). LMW-DS was administered at 15 mg/kg by daily subcutaneous injection […] to assess RGC protection compared to controls.
Group 1 n=12 rats; 24 eyes […] TGF-β (twice weekly for 28 days) between day 0 and day 28+ daily subcutaneous administration of dextran sulfate from day 14 to day 28.
Group 2 n=8 rats; 16 eyes IOP+IC TGF-β (twice weekly for 28 days) between day 0 and day 28+ daily subcutaneous administration of vehicle (saline) from day 14 to day 28.
Measured End-Points • IOP twice weekly throughout study from day 0 to day 28; • Immunohistochemistry for counting retinal ganglion cell (RGC) that are immunoreactive for brain-specific homeobox/POU domain protein 3A (Brn3a) at day 28 (RGC survival); • Immunohistochemistry for laminin and fibronectin to evaluate scarring in the trabecular meshwork at day 28 in Groups 1 and 2; • Anterior segment and optical coherence tomography (OCT) imaging at day 28 to examine the angle and the thickness of the retinal nerve fiber layer comprising RGC axons; and • Body weight at day 28. […]

[2] = system: closed-head diffuse severe TBI (sTBI); assay: sTBI in rats, dose study, HPLC of free amino acids and amino group containing compounds (Example 7); format: in vivo, Male Wistar rats
[3] = 1 mg/kg s.c. single, 30 min post-sTBI, sacrifice 2 days
[4] = 5 mg/kg s.c. single, 30 min post-sTBI, sacrifice 2 days
[5] = 15 mg/kg s.c. single, 30 min post-sTBI, sacrifice 2 days
[6] = rats, 7 days post-sTBI, repeated administration of 15 mg/kg b.w.
[7] = rats, 7 days post-sTBI, single administration of 1 mg/kg b.w.
[8] = rats, 7 days post-sTBI, single administration of 5 mg/kg b.w.
[9] = rats, 7 days post-sTBI, single administration of 15 mg/kg b.w.

low molecular weight dextran sulfate [LMW-DS]
immunoreactive laminin in the angle (TM scarring) vs saline ([1]; 15 mg/kg daily s.c. day 14 to day 28, P<0.001): significantly reduced | immunoreactive fibronectin in the angle (TM scarring) vs saline ([1]; 15 mg/kg daily s.c. day 14 to day 28, P<0.01): significantly reduced | GLN, brain concentration [2, 3]: 4.37 ± 0.59 nmol/g w.w. | LYS, brain concentration [2, 3]: 0.29 ± 0.11 nmol/g w.w. | ORN, brain concentration [2, 3]: 0.02 ± 0.01 nmol/g w.w. | THR, brain concentration [2, 3]: 0.70 ± 0.15 nmol/g w.w. | VAL, brain concentration [2, 3]: 0.07 ± 0.03 nmol/g w.w. | ORN, brain concentration [2, 4]: 0.01 ± 0.01 nmol/g w.w. | THR, brain concentration [2, 4]: 0.77 ± 0.17 nmol/g w.w. | VAL, brain concentration [2, 4]: 0.08 ± 0.03 nmol/g w.w. | GLN, brain concentration [2, 5]: 4.21 ± 0.51 nmol/g w.w. | LEU, brain concentration [2, 5]: 0.04 ± 0.01 nmol/g w.w. | ORN, brain concentration [2, 5]: 0.02 ± 0.01 nmol/g w.w. | VAL, brain concentration [2, 5]: 0.06 ± 0.03 nmol/g w.w. | isoleucine (ILE) ([2]; 2 days post sTBI): restored | osmolyte and aromatic free amino acids ([2]; 2 days post sTBI): No remarkable effects | free amino acids involved in NO generation (ARG, CITR) ([2]; 2 days post sTBI, 15 mg/kg b.w.): particularly effective | free amino acids involved in neurotransmission ([2]; 2 days post sTBI, 5 or 15 mg/kg b.w.): partly effective | methionine ([2]; 2 days post sTBI, any dose tested): Restoration | TAU concentrations ([2]; 7 days post sTBI): normalized | aromatic amino acids ([2]; 7 days post sTBI): caused the increase | GLU ([2]; 7 days post sTBI, 15 mg/kg b.w. single or repeat): normalization | free amino acids involved in NO generation (ARG, CITR) ([2]; 7 days post sTBI, 5 or 15 mg/kg b.w. (single and repeat)): particularly effective | L-Cystathionine (L-Cystat) ([2]; 7 days post sTBI, highest dose): significant increase | MET ([2]; 7 days post sTBI, highest dose, single or repeat): Increase | ALA concentration in deproteinized brain homogenates [2, 6]: 0.47 ± 0.05 nmol/g w.w. | ASN concentration in deproteinized brain homogenates [2, 6]: 0.10 ± 0.02 nmol/g w.w. | CITR concentration in deproteinized brain homogenates [2, 6]: 0.03 ± 0.01 nmol/g w.w. | GLN concentration in deproteinized brain homogenates [2, 6]: 3.88 ± 0.4 µmol/g w.w. | HYS concentration in deproteinized brain homogenates [2, 6]: 0.06 ± 0.01 nmol/g w.w. | ILE concentration in deproteinized brain homogenates [2, 6]: 0.03 ± 0.01 nmoL/g w.w. | LEU concentration in deproteinized brain homogenates [2, 6]: 0.04 ± 0.01 nmoL/g w.w. | LYS concentration in deproteinized brain homogenates [2, 6]: 0.23 ± 0.07 nmoL/g w.w. | MET concentration in deproteinized brain homogenates [2, 6]: 0.05 ± 0.01 nmol/g w.w. | THR concentration in deproteinized brain homogenates [2, 6]: 0.77 ± 0.14 nmol/g w.w. | TYR concentration in deproteinized brain homogenates [2, 6]: 0.14 ± 0.02 nmol/g w.w. | VAL concentration in deproteinized brain homogenates [2, 6]: 0.07 ± 0.01 nmoL/g w.w. | ASN concentration in deproteinized brain homogenates [2, 7]: 0.10 ± 0.02 nmol/g w.w. | CITR concentration in deproteinized brain homogenates [2, 7]: 0.03 ± 0.01 nmol/g w.w. | GLN concentration in deproteinized brain homogenates [2, 7]: 4.1 ± 0.42 µmol/g w.w. | HYS concentration in deproteinized brain homogenates [2, 7]: 0.06 ± 0.01 nmol/g w.w. | LYS concentration in deproteinized brain homogenates [2, 7]: 0.19 ± 0.06 nmoL/g w.w. | MET concentration in deproteinized brain homogenates [2, 7]: 0.03 ± 0.01 nmol/g w.w. | TAU concentration in deproteinized brain homogenates [2, 7]: 4.02 ± 0.51 nmol/g w.w. | THR concentration in deproteinized brain homogenates [2, 7]: 0.71 ± 0.12 nmol/g w.w. | TYR concentration in deproteinized brain homogenates [2, 7]: 0.13 ± 0.02 nmol/g w.w. | ASN concentration in deproteinized brain homogenates [2, 8]: 0.10 ± 0.02 nmol/g w.w. | CITR concentration in deproteinized brain homogenates [2, 8]: 0.03 ± 0.01 nmol/g w.w. | GLN concentration in deproteinized brain homogenates [2, 8]: 3.86 ± 0.4 µmol/g w.w. | GLY concentration in deproteinized brain homogenates [2, 8]: 0.88 ± 0.15 nmol/g w.w. | HYS concentration in deproteinized brain homogenates [2, 8]: 0.06 ± 0.01 nmol/g w.w. | LYS concentration in deproteinized brain homogenates [2, 8]: 0.21 ± 0.04 nmoL/g w.w. | MET concentration in deproteinized brain homogenates [2, 8]: 0.04 ± 0.01 nmol/g w.w. | THR concentration in deproteinized brain homogenates [2, 8]: 0.71 ± 0.15 nmol/g w.w. | TRP concentration in deproteinized brain homogenates [2, 8]: 0.02 ± 0.01 nmol/g w.w. | TYR concentration in deproteinized brain homogenates [2, 8]: 0.13 ± 0.02 nmol/g w.w. | ASN concentration in deproteinized brain homogenates [2, 9]: 0.10 ± 0.02 nmol/g w.w. | CITR concentration in deproteinized brain homogenates [2, 9]: 0.03 ± 0.01 nmol/g w.w. | GLN concentration in deproteinized brain homogenates [2, 9]: 3.73 ± 0.38 µmol/g w.w. | HYS concentration in deproteinized brain homogenates [2, 9]: 0.06 ± 0.01 nmol/g w.w. | LYS concentration in deproteinized brain homogenates [2, 9]: 0.21 ±0.05 nmoL/g w.w. | MET concentration in deproteinized brain homogenates [2, 9]: 0.04 ± 0.01 nmol/g w.w. | THR concentration in deproteinized brain homogenates [2, 9]: 0.72 ± 0.14 nmol/g w.w. | TYR concentration in deproteinized brain homogenates [2, 9]: 0.14 ± 0.02 nmol/g w.w.
